Test results taken from patent US20110071197A1, “BIS-ARYL COMPOUNDS FOR USE AS MEDICAMENTS” (priority 2008, published 2011).

target: T1, Recombinant human LTC4 synthase (Homo sapiens, UniProt Q16873); assay: LTC4 synthase in vitro assay (HTRF detection of LTC4); type: biochemical; conditions: compound concentration 3 μM; HTRF method
T1 construct: made in house; host or cells: Pichia pastoris
T1 sequence (Q16873 1-150): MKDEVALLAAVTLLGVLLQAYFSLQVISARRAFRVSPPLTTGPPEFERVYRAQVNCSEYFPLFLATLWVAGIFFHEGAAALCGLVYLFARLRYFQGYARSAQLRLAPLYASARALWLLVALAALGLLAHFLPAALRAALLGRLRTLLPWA
Procedure: Alternatively HTRF detection of LTC4 can be used:
In the assay, LTC4 synthase catalyses the reaction where the substrate LTA4 is converted to LTC4. Recombinant human LTC4 synthase is expressed in Piccia pastoralis and the purified enzyme is dissolved in 25 mM Tris-buffer pH 7.8 supplemented with 0.1 mM glutathione (GSH) and stored at −80° C. The assay is performed in phosphate buffered saline (PBS) pH 7.4 and 5 mM GSH in 384-well plates.
The following is added chronologically to each well: • 1. 48 μl LTC4 synthase in PBS with 5 mM GSH. The total protein concentration in this solution is 0.5 μg/ml. • 2. […] Incubation of the plate at room temperature for 10 minutes. • 4. 1 μl LTA4 (final conc. 2.5 μM). • 5. Incubation of the plate at room temperature for 5 minutes. • 6. 10 μl of the incubation mixture is analysed using homogeneous time resolved fluorescent (HTRF) detection.

Row | Molecule | inhibition at 3 µM [%]
1 | O=C(O)c1cc(Oc2ccc(Nc3ccc(C(=O)C4CC4)cc3)c(C(=O)O)c2)ccc1Nc1ccc(F)cc1 [1:7, 5-[3-carboxy-4-(4-cyclopropane-carbonylphenylamino)phenyloxy]-2-(4-fluorophenylamino)benzene-carboxylic acid] | 97

same assay, conditions: total concentration of title compound in the assay 10 μM; HTRF method

Row | Molecule | % inh. [%] | inhibition at 10 µM [%]
2 | Cc1c(F)cccc1S(=O)(=O)Nc1ccc(Oc2ccc(N(C)C(=O)c3ccc(OC(C)C)cc3)c(C(=O)O)c2)cc1 [11:11] | 72 | 
3 | CCCCc1ccc(C(=O)Nc2ccc(Sc3ccc(NC(=O)c4ccc(CCCC)cc4)c(C(=O)O)c3)cc2C(=O)O)cc1 [13:1, 2-(4-butylbenzamido)-5-((4-(4-butylbenzamido)-3-carboxyphenyl)-sulfanyl)benzoic acid] |  | 98
4 | Cc1c(Cl)cccc1S(=O)(=O)Nc1ccc(Oc2cc(Nc3ccc(F)c(F)c3)cc(C(=O)O)c2)cc1 [18:4, 3-[4-(3-Chloro-2-methyl-benzene-sulfonylamino)-phenoxy]-5-(3,4-difluoro-phenylamino)-benzoic acid] |  | 98
5 | O=C(Nc1cccc(Oc2ccc(NC(=O)c3ccc(C(F)(F)F)cc3F)c(C(=O)O)c2)c1)c1ccc(C(F)(F)F)cc1 [10:6, 2-(2-fluoro-4-trifluoromethylbenzoyl-amino)-5-[3-(4-trifluoromethylbenzoyl-amino)phenoxy]benzoic acid] |  | 98
6 | CN(C(=O)c1ccc(C(F)(F)F)cc1)c1ccc(Oc2ccc(NC(=O)c3ccc(Cl)cc3Cl)c(C(=O)O)c2)cc1 [9:5, 5-(4-((N-methyl)-4-trifluoromethyl-benzamido)phenoxy)-2-(2,4-dichloro-benzamido)benzoic acid] |  | 98
7 | 5-{4-[(4-methoxybenzene-sulfonyl)methylamino]-phenoxy}-2-(4-trifluoromethyl-benzoylamino)benzoic acid [11:3] | 98 | 
8 | O=C(Nc1ccc([S+]([O-])c2ccc(NC(=O)c3cccc(Cl)c3)c(C(=O)O)c2)cc1C(=O)O)c1cccc(Cl)c1 [15:2, 2-(3-chlorobenzamido)-5-(4-(3-chlorobenzamido)-3-carboxyphenylsulfinyl)benzoic acid] |  | 100
9 | O=C(O)c1cc(Oc2ccc(Nc3ccc(F)cc3)cc2)ccc1Nc1ccc(F)c(F)c1 [Example 12:1, 2-(3,4-difluorophenylamino)-5-(4-(4-fluorophenylamino)-phenoxy)benzoic acid] |  | 96
10 | CCCCOc1ccc(S(=O)(=O)Nc2ccc(Oc3ccc(S(=O)(=O)Nc4ccc(F)c(F)c4)cc3)cc2C(=O)O)cc1 [25:3, 2-(4-Butoxybenzenesulfonyl-amino)-5-[4-(3,4-difluorophenyl-sulfamoyl)phenoxy]benzoic acid] |  | 100
11 | COc1ccc(S(=O)(=O)N(C)c2ccc(Oc3ccc(NC(=O)c4ccccc4OC(F)(F)F)c(C(=O)O)c3)cc2)cc1 [11:19, 5-{4-[(4-Methoxy-benzenesulfonyl)-methyl-amino]-phenoxy}-2-(2-trifluoromethoxy-benzoylamino)-benzoic acid] |  | 97
12 | CCCCOc1ccc(S(=O)(=O)Nc2ccc(Oc3cccc(C(=O)NS(=O)(=O)c4ccc(F)cc4)c3)cc2C(=O)O)cc1 [20:7, 2-(4-Butoxy-benzenesulfonylamino)-5-[3-(4-fluoro-benzenesulfonylamino-carbonyl)-phenoxy]-benzoic acid] |  | 94
13 | CCCCOc1ccc(S(=O)(=O)Nc2ccc(Oc3ccc(Nc4ccc(F)c(F)c4)cc3C(=O)O)cc2C(=O)O)cc1 [Example 1:9, 2-(4-butoxybenzenesulfonyl-amino)-5-[4-(2-carboxy)(3,4-di-fluorophenylamino)phenoxy]-benzoic acid] | 100 | 
14 | O=C(Nc1ccc(Sc2ccc(NS(=O)(=O)c3ccc(Cl)cc3F)c(C(=O)O)c2)cc1)c1ccc(C(F)(F)F)cc1 [Example 35:2, 2-(4-Chloro-2-fluoro-benzenesulfonylamino)-5-[4-(4-trifluoromethylbenzoylamino)-phenylsulfanyl]benzoic acid] |  | 100
